Results: ChEMBL document CHEMBL4477215, “Specific Correction of Alternative Survival Motor Neuron 2 Splicing by Small Molecules: Discovery of a Potential Novel Medicine To Treat Spinal Muscular Atrophy” (J Med Chem, 2016)

Columns and labels:
[1] = Fraction unbound in mouse plasma; format: ADME, cell-free
[2] = Volume of distribution at steady state in rat at 2 mg/kg, iv; format: ADME, organism-based; settings: in vivo, read-out: Vdss
[3] = test system: Mus musculus; test: Inhibition of mRNA splicing of SMN2 exon 7 in neonatal delta7 mouse harboring FVB.Cg-Tg(SMN2 delta7)4299Ahmb Tg(SMN2)-89Ahmb Smn1tm1Msd/J assessed as increase in SMN protein level in quadriceps at 0.3 mg/kg, ip qd administered from postnatal day 3 to postnatal day 9 measured 1 hr after last dose by HTRF assay relative to control; format: functional; set-up: scale not given: the % may be the effect or the level left
[4] = Mutagenicity in Salmonella typhimurium TA100 assessed as increase in revertant colonies after 2 days in presence of rat liver S9 fraction by Ames test relative to control; format: toxicity; settings: salmonella enterica subsp. enterica serovar typhimurium, s9, 48 h
[5] = test system: Mus musculus; test: Inhibition of mRNA splicing of SMN2 exon 7 in neonatal delta7 mouse harboring FVB.Cg-Tg(SMN2 delta7)4299Ahmb Tg(SMN2)-89Ahmb Smn1tm1Msd/J assessed as increase in SMN protein level in brain at 0.3 mg/kg, ip qd administered from postnatal day 3 to postnatal day 9 measured 1 hr after last dose by HTRF assay relative to control; format: functional; set-up: scale not given: the % may be the effect or the level left
[6] = Octanol-aqueous phosphate buffer distribution coefficient, log D of the compound at pH 7.4 at 100 mM after 24 hrs by LC-MS based shake flask method; format: physicochemical
[7] = Volume of distribution at steady state in Cynomolgus monkey at 0.3 mg/kg, iv; format: ADME, organism-based, Macaca fascicularis; settings: in vivo, read-out: Vdss
[8] = Clearance in rat at 2 mg/kg, iv; format: ADME, organism-based; settings: in vivo
[9] = test system: Mus musculus; test: Inhibition of mRNA splicing of SMN2 exon 7 in C/C-allele mouse harboring FVB.129(B6) Smn1tm5(Smn1/SMN2)Mrph/J assessed as increase in SMN protein level in brain at 1 mg/kg, po qd for 10 days measured 1 hr after 10th dose by HTRF assay relative to control; format: functional; set-up: scale not given: the % may be the effect or the level left
[10] = biological target: P-gp (ABCB1) (Homo sapiens, UniProt P08183); test: Substrate activity at human P-gp assessed as efflux ratio by cell based assay; settings: not told
Chain of P-gp (ABCB1) (P08183 whole entry): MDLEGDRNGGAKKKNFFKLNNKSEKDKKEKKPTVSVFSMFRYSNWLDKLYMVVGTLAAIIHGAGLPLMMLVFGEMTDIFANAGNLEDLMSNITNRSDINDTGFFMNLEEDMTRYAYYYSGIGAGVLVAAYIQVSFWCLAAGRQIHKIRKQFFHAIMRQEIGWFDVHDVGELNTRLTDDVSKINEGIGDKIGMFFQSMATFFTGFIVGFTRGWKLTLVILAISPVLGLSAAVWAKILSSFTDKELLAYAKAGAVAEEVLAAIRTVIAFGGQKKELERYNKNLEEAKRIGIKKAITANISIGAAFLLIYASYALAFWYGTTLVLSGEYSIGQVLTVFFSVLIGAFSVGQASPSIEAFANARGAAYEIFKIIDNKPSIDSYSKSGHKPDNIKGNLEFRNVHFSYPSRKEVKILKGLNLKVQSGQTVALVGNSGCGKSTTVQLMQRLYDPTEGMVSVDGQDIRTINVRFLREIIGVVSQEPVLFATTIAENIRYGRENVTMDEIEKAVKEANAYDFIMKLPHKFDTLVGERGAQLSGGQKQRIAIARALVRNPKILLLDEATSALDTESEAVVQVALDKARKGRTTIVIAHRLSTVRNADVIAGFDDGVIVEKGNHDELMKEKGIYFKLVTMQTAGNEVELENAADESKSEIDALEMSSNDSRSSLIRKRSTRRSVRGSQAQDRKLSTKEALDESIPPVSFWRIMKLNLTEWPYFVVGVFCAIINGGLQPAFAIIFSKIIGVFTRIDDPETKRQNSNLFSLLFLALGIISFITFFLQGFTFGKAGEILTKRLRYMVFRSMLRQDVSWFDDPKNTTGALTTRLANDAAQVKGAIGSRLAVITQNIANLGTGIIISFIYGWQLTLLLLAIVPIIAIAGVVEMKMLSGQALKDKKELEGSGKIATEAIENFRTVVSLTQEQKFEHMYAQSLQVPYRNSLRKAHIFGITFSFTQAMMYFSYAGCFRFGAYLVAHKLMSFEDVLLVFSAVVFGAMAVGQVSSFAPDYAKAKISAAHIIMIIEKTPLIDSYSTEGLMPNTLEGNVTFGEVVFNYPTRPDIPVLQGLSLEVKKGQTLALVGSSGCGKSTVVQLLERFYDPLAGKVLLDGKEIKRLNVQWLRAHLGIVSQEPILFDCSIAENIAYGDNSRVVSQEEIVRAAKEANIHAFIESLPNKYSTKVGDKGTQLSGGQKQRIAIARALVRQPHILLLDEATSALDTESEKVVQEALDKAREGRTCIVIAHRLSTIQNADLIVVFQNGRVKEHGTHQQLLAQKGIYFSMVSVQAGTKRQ

[11] = test system: Mus musculus; test: Inhibition of mRNA splicing of SMN2 exon 7 in C/C-allele mouse harboring FVB.129(B6) Smn1tm5(Smn1/SMN2)Mrph/J assessed as increase in SMN protein level in brain at 3 mg/kg, po qd for 10 days measured 1 hr after 10th dose by HTRF assay relative to control; format: functional; set-up: scale not given: the % may be the effect or the level left
[12] = AUC in plasma of C/C-allele mouse harboring FVB.129(B6)-Smn1tm5(Smn1/SMN2)Mrph/J at 10 mg/kg, po; format: ADME, organism-based
[13] = Fraction unbound in rat plasma; format: ADME, cell-free
[14] = Mutagenicity in Salmonella typhimurium TA98 assessed as increase in revertant colonies after 2 days in presence of rat liver S9 fraction by Ames test relative to control; format: toxicity; settings: salmonella enterica subsp. enterica serovar typhimurium, s9, 48 h
[15] = test system: Mus musculus; test: Inhibition of mRNA splicing of SMN2 exon 7 in C/C-allele mouse harboring FVB.129(B6) Smn1tm5(Smn1/SMN2)Mrph/J assessed as increase in SMN protein level in quadriceps administered orally qd for 10 days measured 1 hr after 10th dose by HTRF assay; format: functional, organism-based
[16] = organism: Homo sapiens; test: Inhibition of mRNA splicing of SMN2 exon 7 in GM03813 fibroblasts derived from human SMA type 1 patient after 24 hrs by RT-qPCR analysis
[17] = Mutagenicity in Salmonella typhimurium TA1535 assessed as increase in revertant colonies after 2 days in presence of rat liver S9 fraction by Ames test relative to control; format: toxicity; settings: salmonella enterica subsp. enterica serovar typhimurium, s9, 48 h
[18] = Half life in rat at 10 mg/kg, po; format: ADME, organism-based; settings: in vivo
[19] = test system: Mus musculus; test: Inhibition of mRNA splicing of SMN2 exon 7 in C/C-allele mouse harboring FVB.129(B6) Smn1tm5(Smn1/SMN2)Mrph/J assessed as increase in SMN protein level in brain at 10 mg/kg, po qd for 10 days measured 1 hr after 10th dose by HTRF assay relative to control; format: functional; set-up: scale not given: the % may be the effect or the level left
[20] = test system: Mus musculus; test: Inhibition of mRNA splicing of SMN2 exon 7 in neonatal delta7 mouse harboring FVB.Cg-Tg(SMN2 delta7)4299Ahmb Tg(SMN2)-89Ahmb Smn1tm1Msd/J assessed as increase in SMN protein level in quadriceps at 1 mg/kg, ip qd administered from postnatal day 3 to postnatal day 9 measured 1 hr after last dose by HTRF assay relative to control; format: functional; set-up: scale not given: the % may be the effect or the level left
[21] = Oral bioavailability in Cynomolgus monkey at 1 mg/kg; format: ADME, organism-based, Macaca fascicularis; settings: in vivo
[22] = test system: Mus musculus; test: Inhibition of mRNA splicing of SMN2 exon 7 in C/C-allele mouse harboring FVB.129(B6) Smn1tm5(Smn1/SMN2)Mrph/J assessed as increase in SMN protein level in brain administered orally po qd for 10 days measured 1 hr after 10th dose by HTRF assay; format: functional, organism-based
[23] = test system: Mus musculus; test: Inhibition of mRNA splicing of SMN2 exon 7 in C/C-allele mouse harboring FVB.129(B6) Smn1tm5(Smn1/SMN2)Mrph/J assessed as increase in SMN protein level in quadriceps at 10 mg/kg, po qd for 10 days measured 1 hr after 10th dose by HTRF assay relative to control; format: functional; set-up: scale not given: the % may be the effect or the level left
[24] = Clearance in Cynomolgus monkey at 0.3 mg/kg, iv; format: ADME, organism-based, Macaca fascicularis; settings: in vivo
[25] = Mutagenicity in Salmonella typhimurium TA97 assessed as increase in revertant colonies after 2 days in presence of rat liver S9 fraction by Ames test relative to control; format: toxicity; settings: salmonella enterica subsp. enterica serovar typhimurium, s9, 48 h
[26] = test system: Mus musculus; test: Inhibition of mRNA splicing of SMN2 exon 7 in neonatal delta7 mouse harboring FVB.Cg-Tg(SMN2 delta7)4299Ahmb Tg(SMN2)-89Ahmb Smn1tm1Msd/J assessed as increase in SMN protein level in brain at 1 mg/kg, ip qd administered from postnatal day 3 to postnatal day 9 measured 1 hr after last dose by HTRF assay relative to control; format: functional; set-up: scale not given: the % may be the effect or the level left
[27] = Oral bioavailability in rat at 10 mg/kg; format: ADME, organism-based; settings: in vivo
[28] = Fraction unbound in Cynomolgus monkey plasma; format: ADME, cell-free, Macaca fascicularis
[29] = Half life in Cynomolgus monkey at 1 mg/kg, po; format: ADME, organism-based, Macaca fascicularis; settings: in vivo
[30] = test system: Mus musculus; test: Inhibition of mRNA splicing of SMN2 exon 7 in C/C-allele mouse harboring FVB.129(B6) Smn1tm5(Smn1/SMN2)Mrph/J assessed as increase in SMN protein level in quadriceps at 3 mg/kg, po qd for 10 days measured 1 hr after 10th dose by HTRF assay relative to control; format: functional; set-up: scale not given: the % may be the effect or the level left
[31] = test system: Mus musculus; test: Inhibition of mRNA splicing of SMN2 exon 7 in neonatal delta7 mouse harboring FVB.Cg-Tg(SMN2 delta7)4299Ahmb Tg(SMN2)-89Ahmb Smn1tm1Msd/J assessed as increase in SMN protein level in brain administered ip qd dosed from postnatal day 3 to postnatal day 9 measured 1 hr after last dose by HTRF assay; format: functional, organism-based

Compound	fraction unbound [1]	Vd [2] [L/kg]	Activity [3] [%]	Activity [4]	Activity [5] [%]	logD at 24 h [6]	Vd [7] [L/kg]	clearance [8] [mL/min/kg]	Activity [9] [%]	efflux ratio [10]	Activity [11] [%]	AUC [12] [ng·h/mL]	fraction unbound [13]	Activity [14]	inhibition [15]	EC1.5 [16] [nM]	Activity [17]	half-life [18] [h]	Activity [19] [%]	Activity [20] [%]	further results
Cc1cn2cc(-c3cc(=O)n4cc(N5CCN(C)CC5)ccc4n3)cc(C)c2n1	0.16	14	31	Non-Toxic	39	2.49	4.3	38	0	2.4	0	2500	0.1	Non-Toxic	Dose-dependent effect	7	Non-Toxic	6	39	115	bioavailability [21]: 100%; inhibition [22]: Dose-dependent effect; Activity [23]: 133%; clearance [24]: 7.5 mL/min/kg; Activity [25]: Non-Toxic; Activity [26]: 130%; bioavailability [27]: 55 to 100%; fraction unbound [28]: 0.08; half-life [29]: 8 h; Activity [30]: 70%; inhibition [31]: Dose-dependent effect
Cc1cn2cc(-c3cc(=O)n4cc(N5CCN(C)CC5)ccc4n3)cc(F)c2n1	0.17	5	189	Non-Toxic	116	2.3	2.4	61	42	1.9	60	2700	0.16	Non-Toxic	Dose-dependent effect	32	Non-Toxic	4	141	260	bioavailability [21]: 84%; inhibition [22]: Dose-dependent effect; Activity [23]: 126%; clearance [24]: 9.7 mL/min/kg; Activity [25]: Non-Toxic; Activity [26]: 159%; bioavailability [27]: 100%; fraction unbound [28]: 0.18; half-life [29]: 2.9 h; Activity [30]: 81%; inhibition [31]: Dose-dependent effect
CCc1nc(C)cn2nc(-c3cc(=O)n4cc(C5CCN(C)CC5)cc(C)c4n3)cc12	0.02	20	40	Non-Toxic	20	2.26	20	18	7	2	19	33000	0.17	Non-Toxic	Dose-dependent effect	23	Non-Toxic	12	122	57	bioavailability [21]: 52%; inhibition [22]: Dose-dependent effect; Activity [23]: 94%; clearance [24]: 5 mL/min/kg; Activity [25]: Non-Toxic; Activity [26]: 55%; bioavailability [27]: 83%; fraction unbound [28]: 0.16; half-life [29]: 40 to 60 h; Activity [30]: 57%; inhibition [31]: Dose-dependent effect
